In assay [1] the test system is carrageenin-induced paw oedema. The experiment in a line: carrageenin-induced paw oedema test in the rat. The format is in vivo. The note with it: day 0. From the text:
The objective of this study is to assess the effect of complexes or compositions of the invention in the carrageenin-induced paw oedema test in the rat, a commonly employed method for screening and evaluation of antiinflammatory drugs. Carrageenin, the phlogistic agent of choice for testing antiinflammatory drugs, is a mucopolysaccharide derived from Irish sea moss, Chondrus. Ibuprofen is used as a positive control.
The test article is the complex of the invention prepared according to example 105 (Compound 105 in the following). Compound 105 and Ibuprofen are obtained from Astion A/S, Denmark.
The test article is dissolved in milli-Q water. 0.9% NaCl solution is used as vehicle.
The study is performed in male SPF Sprague Dawley rats of the stock Mol:SPRD from M & B A/S, Tornbjergvej 40, DK-4623 Lille Skensved, Denmark. At start of the acclimatisation period the rats are in the weight range of 80-100 g.
All doses of Compound 105 are administered intraperitoneally in volumes of 20 ml per kg body weight, once daily on day −2 and −1 to groups 2,3 and 4 only and on day 0 to groups 2-6, 0-5 minutes before injection of carrageenin into the foot on day 0. Ibuprofen and vehicle are administered orally by gavage in volumes of 20 ml/kg body weight on day 0, 0-5 minutes before injection of the carrageenin into the foot.
Carrageenin (from Sigma) is prepared as a 1% suspension in sterile 0.9% NaCl-solution. A volume of 0.1 ml is injected through a 25-gauge needle into the plantar tissue of the right hind paw of the rats within 5 minutes after treatment with the test articles.
Immediately before the dosing and carrageenin injection and three and five hours later the foot volume is measured using a plethysmometer LE 7500 from Letica Scientific Instruments, Spain.
Background: The carrageenan paw model is a standard test of acute inflammation.

The subject of assay [2] is tendonitis of the arm; osteoarthritis of the hips and knees; knee injury involving cartilage damage. The experiment in a line: small preliminary clinical investigation, three persons, oral aqueous solution of compound 105. The class given is in vivo, human. As to conditions: person, normal doses, patient history. The protocol: In a small preliminary clinical investigation three persons administered a pharmaceutical composition according to the invention. The composition was an aqueous solution (100 mg/ml) of compound 105, which is the complex of the invention prepared according to example 105.
One patient was […] and had suffered from tendonitis of the arm for eight months. The symptoms were chronic muscle pain and some degree of immobility of the arm.
The composition of the invention was administered orally corresponding to 3000 mg compound 105 twice a day. […] After a further week of treatment the treatment was discontinued.
Another patient was […] and had suffered from osteoarthritis of the hips and knees for ten years. For some periods the patient had been treated with celecoxib, paracetamol and/or codein to control the pain. The main symptoms were pain and immobility of the joints. The composition of the invention was administered orally corresponding to 3000 mg compound 105 twice a day.
The symptoms were pain and immobility of the knee joint. The composition of the invention was administered orally corresponding to 3000 mg compound 105 twice a day. […] During the next two days the symptoms started reappearing.

Each structure is given as a SMILES string.

In the case of `CC(C)Cc1ccc(C(C)C(=O)O)cc1` (centres unmarked) [Ibuprofen], the “inhibition of the paw oedema” value in assay [1] (after 5 hours, 50 mg/kg orally by gavage) was 77%; in assay [1] (after 5 hours, 150 mg/kg orally by gavage), 97%; in assay [1] (after three hours, 50 mg/kg orally by gavage) it was 37%; in assay [1] (after three hours, 150 mg/kg orally by gavage), 57%. Further, the “symptomatic effect of earlier treatment” value in assay [2] is given as “limited symptomatic effect”.

These data come from patent US20030162732A1, “Combination of aminosugars and cysteine or cysteine derivatives” (Astion Development A/S, priority 2001, published 2003).
